System: 786-0 complex spheroids with HUVEC/MSC, growth % test/control
Experiment: Anticancer human tumor 786-0 cell line growth inhibition [AhR];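 also: compound exposure lasted seven days before the read-out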
Conditions: for IC50: curve of first compound; for viability, T/C: stronger effect = lower value
In short: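 Spheroids combined tumor cells with HUVEC endothelial cells and human MSCs as stroma. AhR antagonists were paired with standard or investigational drugs, each dosed in half-log steps down from near clinical Cmax, or from 10 microM where Cmax was unknown.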

[1] = second compound 0.1 µM, first compound 0.0316 µM
[2] = second compound 0.1 µM, first compound 0.1 µM
[3] = second compound 0.1 µM, first compound 0.316 µM
[4] = second compound 0.1 µM, first compound 1 µM
[5] = second compound 0.1 µM, first compound 3.16 µM
[6] = second compound 0.1 µM, first compound 10 µM
[7] = second compound 0.316 µM, first compound 0.0316 µM
[8] = second compound 0.316 µM, first compound 0.1 µM
[9] = second compound 0.316 µM, first compound 0.316 µM
[10] = second compound 0.316 µM, first compound 1 µM
[11] = second compound 0.316 µM, first compound 3.16 µM
[12] = second compound 0.316 µM, first compound 10 µM
[13] = second compound 1 µM, first compound 0.0316 µM
[14] = second compound 1 µM, first compound 0.1 µM
[15] = second compound 1 µM, first compound 0.316 µM
[16] = second compound 1 µM, first compound 1 µM
[17] = second compound 1 µM, first compound 3.16 µM
[18] = second compound 1 µM, first compound 10 µM
[19] = second compound 3.16 µM, first compound 0.0316 µM
[20] = second compound 3.16 µM, first compound 0.1 µM
[21] = second compound 3.16 µM, first compound 0.316 µM
[22] = second compound 3.16 µM, first compound 1 µM
[23] = second compound 3.16 µM, first compound 3.16 µM
[24] = second compound 3.16 µM, first compound 10 µM
[25] = second compound 10 µM, first compound 0.0316 µM
[26] = second compound 10 µM, first compound 0.1 µM
[27] = second compound 10 µM, first compound 0.316 µM
[28] = second compound 10 µM, first compound 1 µM
[29] = second compound 10 µM, first compound 3.16 µM
[30] = second compound 10 µM, first compound 10 µM

For `Nc1ccccc1NC(=O)c1ccc(CNC(=O)OCc2cccnc2)cc1` + Cc1ccccc1N=Nc1ccc(NC(=O)c2ccnn2C)c(C)c1, the IC50 (second compound 0.1 µM) was 7.06 µM, the IC50 (second compound 0.316 µM) was 7.47 µM and the IC50 (second compound 1 µM) was 7.2 µM. For the same molecule, the IC50 (second compound 3.16 µM) was 6.61 µM, the IC50 (second compound 10 µM) was 5.76 µM and the viability, T/C [1] was 104%. For the same molecule, the viability, T/C [2] was 99.1%, the viability, T/C [3] was 120% and the viability, T/C [4] was 103%. It also gave a viability, T/C [5] of 94.2%, a viability, T/C [6] of 30.8% and a viability, T/C [7] of 114%. For the same molecule, the viability, T/C [8] was 103%, the viability, T/C [9] was 106% and the viability, T/C [10] was 115%. For the same molecule, the viability, T/C [11] was 105%, the viability, T/C [12] was 31.1% and the viability, T/C [13] was 105%. The viability, T/C [14] was 111%, the viability, T/C [15] was 105% and the viability, T/C [16] was 104%. It also gave a viability, T/C [17] of 94.3%, a viability, T/C [18] of 32% and a viability, T/C [19] of 88.1%. For the same molecule, the viability, T/C [20] was 90.6%, the viability, T/C [21] was 92.2% and the viability, T/C [22] was 80.8%. For the same molecule, the viability, T/C [23] was 91.4%, the viability, T/C [24] was 28.2% and the viability, T/C [25] was 88.5%. The viability, T/C [26] was 91.7%, the viability, T/C [27] was 99.2% and the viability, T/C [28] was 91.2%. It also gave a viability, T/C [29] of 75.8% and a viability, T/C [30] of 26.3%.

For `Nc1ccn(C2OC(CO)C(O)C2(F)F)c(=O)n1` (stereo not given) + Cc1ccccc1N=Nc1ccc(NC(=O)c2ccnn2C)c(C)c1, the IC50 (second compound 0.1 µM) was < 0.0316 µM, the IC50 (second compound 0.316 µM) was < 0.0316 µM and the IC50 (second compound 1 µM) was < 0.0316 µM. The IC50 (second compound 3.16 µM) was < 0.0316 µM, the IC50 (second compound 10 µM) was < 0.0316 µM and the viability, T/C [1] was 8.08%. The viability, T/C [2] was 6.67%, the viability, T/C [3] was 7.73% and the viability, T/C [4] was 5.06%. For the same molecule, the viability, T/C [5] was 7.17%, the viability, T/C [6] was 6.66% and the viability, T/C [7] was 7.8%. It also gave a viability, T/C [8] of 6.77%, a viability, T/C [9] of 5.95% and a viability, T/C [10] of 8.69%. It also gave a viability, T/C [11] of 7.54%, a viability, T/C [12] of 7.11% and a viability, T/C [13] of 6.79%. The viability, T/C [14] was 6.35%, the viability, T/C [15] was 7.35% and the viability, T/C [16] was 5.82%. The viability, T/C [17] was 7.07%, the viability, T/C [18] was 6.7% and the viability, T/C [19] was 7.91%. The viability, T/C [20] was 5.76%, the viability, T/C [21] was 6.46% and the viability, T/C [22] was 4.78%. The viability, T/C [23] was 6.9%, the viability, T/C [24] was 7.29% and the viability, T/C [25] was 9.54%. It also gave a viability, T/C [26] of 8.5%, a viability, T/C [27] of 7.09% and a viability, T/C [28] of 6.47%. The viability, T/C [29] was 5.53% and the viability, T/C [30] was 6.11%.

In the case of `O=C(c1cc(Cc2n[nH]c(=O)c3ccccc23)ccc1F)N1CCN(C(=O)C2CC2)CC1` + Cc1ccccc1N=Nc1ccc(NC(=O)c2ccnn2C)c(C)c1, the IC50 (second compound 0.1 µM) is reported as > 10 µM, the IC50 (second compound 0.316 µM) is reported as > 10 µM and the IC50 (second compound 1 µM) is reported as > 10 µM. For the same molecule, the IC50 (second compound 3.16 µM) was > 10 µM, the IC50 (second compound 10 µM) was > 10 µM and the viability, T/C [1] was 101%. The viability, T/C [2] was 105%, the viability, T/C [3] was 99.8% and the viability, T/C [4] was 104%. The viability, T/C [5] was 97%, the viability, T/C [6] was 104% and the viability, T/C [7] was 97.1%. For the same molecule, the viability, T/C [8] was 101%, the viability, T/C [9] was 107% and the viability, T/C [10] was 106%. For the same molecule, the viability, T/C [11] was 107%, the viability, T/C [12] was 101% and the viability, T/C [13] was 100%. For the same molecule, the viability, T/C [14] was 101%, the viability, T/C [15] was 104% and the viability, T/C [16] was 97.1%. The viability, T/C [17] was 107%, the viability, T/C [18] was 99.1% and the viability, T/C [19] was 94.6%. The viability, T/C [20] was 97.9%, the viability, T/C [21] was 99.5% and the viability, T/C [22] was 97.3%. The viability, T/C [23] was 106%, the viability, T/C [24] was 94.4% and the viability, T/C [25] was 98.2%. It also gave a viability, T/C [26] of 93.8%, a viability, T/C [27] of 102% and a viability, T/C [28] of 94.9%. The viability, T/C [29] was 88.1% and the viability, T/C [30] was 87.5%.
